The record followed here is ChEMBL document CHEMBL1139599, “Benzothieno[3,2-b]indole derivatives as potent selective estrogen receptor modulators” (Bioorg Med Chem Lett, 2005).

SMILES strings stand for the structures.

For experiment [1], the target named is T1, Estrogen receptor (Homo sapiens, UniProt P03372).
T1 sequence (P03372 whole entry): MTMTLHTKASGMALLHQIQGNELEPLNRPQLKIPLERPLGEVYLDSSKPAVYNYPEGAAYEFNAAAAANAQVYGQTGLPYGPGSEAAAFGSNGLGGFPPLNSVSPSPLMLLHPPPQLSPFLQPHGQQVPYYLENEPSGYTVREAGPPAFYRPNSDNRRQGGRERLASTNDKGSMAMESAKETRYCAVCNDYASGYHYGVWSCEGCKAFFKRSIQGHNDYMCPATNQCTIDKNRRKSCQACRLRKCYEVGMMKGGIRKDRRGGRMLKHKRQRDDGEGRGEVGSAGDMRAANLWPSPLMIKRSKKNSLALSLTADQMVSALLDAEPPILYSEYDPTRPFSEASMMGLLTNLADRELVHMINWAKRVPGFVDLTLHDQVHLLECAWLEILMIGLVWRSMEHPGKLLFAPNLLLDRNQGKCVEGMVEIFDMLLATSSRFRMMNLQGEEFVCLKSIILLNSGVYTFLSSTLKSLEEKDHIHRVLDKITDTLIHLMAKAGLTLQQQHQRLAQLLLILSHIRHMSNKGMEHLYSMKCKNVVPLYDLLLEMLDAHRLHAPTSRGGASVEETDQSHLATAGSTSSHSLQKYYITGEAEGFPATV
In words: Inhibition of [3H]17-beta-estradiol binding to human estrogen receptor alpha.

The target in experiment [2] is T2, Estrogen receptor (Mus musculus) (UniProt O08537+P19785). To be noted: Uterus.
T2 sequence (O08537 whole entry, looked up): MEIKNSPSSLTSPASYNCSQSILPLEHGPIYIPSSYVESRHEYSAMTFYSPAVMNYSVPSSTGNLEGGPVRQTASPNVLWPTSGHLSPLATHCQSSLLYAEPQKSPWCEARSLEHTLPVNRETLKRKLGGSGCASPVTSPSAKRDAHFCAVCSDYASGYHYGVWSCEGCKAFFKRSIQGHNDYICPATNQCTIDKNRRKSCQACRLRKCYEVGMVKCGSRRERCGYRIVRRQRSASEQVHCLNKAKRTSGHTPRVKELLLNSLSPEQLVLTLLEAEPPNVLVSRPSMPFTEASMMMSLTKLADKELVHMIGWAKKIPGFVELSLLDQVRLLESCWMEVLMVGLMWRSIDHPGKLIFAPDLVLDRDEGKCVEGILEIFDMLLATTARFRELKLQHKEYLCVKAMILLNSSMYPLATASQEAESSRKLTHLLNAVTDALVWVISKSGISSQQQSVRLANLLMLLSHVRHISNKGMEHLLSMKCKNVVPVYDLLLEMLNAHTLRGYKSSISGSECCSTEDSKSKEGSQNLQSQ
T2 sequence (P19785 whole entry, looked up): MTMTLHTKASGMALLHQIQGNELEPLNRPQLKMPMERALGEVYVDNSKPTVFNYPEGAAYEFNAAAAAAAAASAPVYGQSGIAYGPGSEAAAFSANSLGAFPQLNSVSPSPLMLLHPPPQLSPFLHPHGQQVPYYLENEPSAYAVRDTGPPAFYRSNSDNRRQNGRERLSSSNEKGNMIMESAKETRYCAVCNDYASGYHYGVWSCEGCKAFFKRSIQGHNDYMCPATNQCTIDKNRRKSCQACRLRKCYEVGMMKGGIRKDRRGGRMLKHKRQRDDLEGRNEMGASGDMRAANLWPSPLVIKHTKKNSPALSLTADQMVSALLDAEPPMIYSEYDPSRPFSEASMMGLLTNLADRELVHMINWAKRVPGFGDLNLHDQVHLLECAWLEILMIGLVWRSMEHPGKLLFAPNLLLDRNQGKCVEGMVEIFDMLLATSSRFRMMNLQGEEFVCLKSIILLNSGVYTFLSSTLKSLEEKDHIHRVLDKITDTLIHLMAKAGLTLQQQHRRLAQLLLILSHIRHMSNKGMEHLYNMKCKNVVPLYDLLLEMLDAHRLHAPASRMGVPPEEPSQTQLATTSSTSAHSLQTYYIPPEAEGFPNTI
Description: Uterine wet weight in ovariectomized mice after 4 weeks of subcutaneous administration at 4 umol/kg (n=5)
Experiment [3] addresses T2, Estrogen receptor (Mus musculus).
The target in experiment [4] is Estrogen receptor beta (Homo sapiens, UniProt Q92731). In words: Inhibition of [3H]17-beta-estradiol binding to human estrogen receptor beta.
Sequence of Estrogen receptor beta (Q92731 whole entry): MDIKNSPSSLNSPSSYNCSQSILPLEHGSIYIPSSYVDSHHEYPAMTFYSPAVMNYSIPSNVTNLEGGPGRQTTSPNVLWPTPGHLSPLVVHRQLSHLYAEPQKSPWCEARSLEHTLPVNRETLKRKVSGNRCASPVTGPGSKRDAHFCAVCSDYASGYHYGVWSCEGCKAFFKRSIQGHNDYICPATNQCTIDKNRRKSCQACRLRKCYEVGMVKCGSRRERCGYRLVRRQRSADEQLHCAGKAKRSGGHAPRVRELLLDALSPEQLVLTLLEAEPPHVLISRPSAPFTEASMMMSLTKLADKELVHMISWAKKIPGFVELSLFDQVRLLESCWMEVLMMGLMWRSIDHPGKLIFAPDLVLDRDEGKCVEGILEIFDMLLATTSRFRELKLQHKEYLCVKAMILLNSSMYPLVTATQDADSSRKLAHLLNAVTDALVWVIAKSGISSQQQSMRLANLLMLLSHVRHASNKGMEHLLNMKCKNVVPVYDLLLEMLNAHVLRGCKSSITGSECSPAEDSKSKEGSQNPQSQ

Broadly, the IC50 is the concentration that gives 50% inhibition. High values mean a need for much substance, low ones inhibition by little substance. For the molecule `CN(C)CCOc1ccc(Cn2c3ccccc3c3sc4cc(O)ccc4c32)cc1`, the IC50 in experiment [1] was 51.4 nM; in experiment [4] it was 45.6 nM. In addition, in experiment [2], the Wet weight turned out to be 28.2 mg. In experiment [3], this molecule returned a BMD of 474 mg/cm3.
Consider `Oc1ccc2c(c1)sc1c3ccccc3n(Cc3ccc(OCCN4CCCCC4)cc3)c21`, for which the IC50 in experiment [1] is 39 nM; in experiment [4], 35 nM. This molecule displayed a Wet weight in experiment [2] of 34 mg. This molecule registered a BMD in experiment [3] of 436 mg/cm3.
As for `Oc1ccc2c(c1)sc1c3cc(O)ccc3n(Cc3ccc(OCCN4CCOCC4)cc3)c21`, the IC50 amounted to 10 nM in experiment [1] and 21.4 nM in experiment [4]. Also, the Wet weight in experiment [2] worked out at 26.3 mg. For the same molecule, in experiment [3], the BMD worked out at 470 mg/cm3.
Take `Oc1ccc2c(c1)sc1c3ccccc3n(Cc3ccc(OCCN4CCCC4)cc3)c21`: the half-maximal inhibitory concentration (IC50) in experiment [1] worked out at 27.2 nM; in experiment [4], 53.9 nM. Also, in experiment [2], the Wet weight was 27.6 mg. This molecule displayed a BMD in experiment [3] of 505 mg/cm3.
On to `Oc1ccc2c(c1)sc1c3cc(O)ccc3n(Cc3ccc(OCCN4CCCC4)cc3)c21`, for which the IC50 in experiment [1] came to 6 nM; in experiment [4] it was 20.2 nM. In experiment [2], this molecule registered a Wet weight of 30.7 mg. Also, in experiment [3], the BMD was determined as 469 mg/cm3.
For `CCN(CC)CCOc1ccc(Cn2c3ccccc3c3sc4cc(O)ccc4c32)cc1`, the values for the half-maximal inhibitory concentration (IC50) in experiment [1] and in experiment [4] were 57.4 nM and 25 nM, respectively. In experiment [2], this molecule yielded a Wet weight of 34.9 mg. For the same molecule, the BMD in experiment [3] was determined as 448 mg/cm3.
`CCN(CC)CCOc1ccc(Cn2c3ccc(O)cc3c3sc4cc(O)ccc4c32)cc1`: the half-maximal inhibitory concentration (IC50) came to 31.2 nM in experiment [1] and 16.4 nM in experiment [4]. The molecule also registered a Wet weight in experiment [2] of 37.7 mg. Moreover, the BMD in experiment [3] was 479 mg/cm3.
For `Oc1ccc2c(c1)sc1c3cc(O)ccc3n(Cc3ccc(OCCN4CCCCC4)cc3)c21`, the IC50 was determined as 2.84 nM in experiment [1] and 11 nM in experiment [4]. Moreover, in experiment [2], the Wet weight is 44.2 mg. The molecule also yielded a BMD in experiment [3] of 548 mg/cm3.
For `CN(C)CCOc1ccc(Cn2c3ccc(O)cc3c3sc4cc(O)ccc4c32)cc1`, the values for the IC50 in experiment [1] and in experiment [4] were 18 nM and 31 nM, respectively. For the same molecule, the Wet weight in experiment [2] worked out at 26.2 mg. Moreover, the BMD in experiment [3] was 480 mg/cm3.
Taken in the same sequence, the figures for `Oc1ccc2c(c1)sc1c3cc(O)ccc3n(Cc3ccc(OCCN4CCCCCC4)cc3)c21` were 3.34 nM, 7.26 nM, 44.2 mg and 534 mg/cm3.
Taken in the same sequence, the figures for `Oc1ccc2c(c1)sc1c3ccccc3n(Cc3ccc(OCCN4CCCCCC4)cc3)c21` were 18 nM, 16.6 nM, 28.5 mg and 444 mg/cm3.
For the molecule `Oc1ccc2c(c1)sc1c3ccccc3n(Cc3ccc(OCCN4CCOCC4)cc3)c21`, the IC50 was 126 nM in experiment [1] and 215 nM in experiment [4]. Also, the Wet weight in experiment [2] was found to be 27 mg. The molecule further yielded a BMD in experiment [3] of 455 mg/cm3.
